{
  "source": "patent US9533973B2",
  "about": "“Allosteric modulators of 5-hydroxytryptamine 2C receptor (5-HT2CR)” (THE BOARD OF REGENTS OF THE UNIVERSITY OF TEXAS SYSTEM, priority 2011, dated 2017)",
  "key": {"5-HT2CR": {"target": "T1, 5-HT2CR (Homo sapiens, UniProt P28335)", "T1 sequence (P28335 33-458)": "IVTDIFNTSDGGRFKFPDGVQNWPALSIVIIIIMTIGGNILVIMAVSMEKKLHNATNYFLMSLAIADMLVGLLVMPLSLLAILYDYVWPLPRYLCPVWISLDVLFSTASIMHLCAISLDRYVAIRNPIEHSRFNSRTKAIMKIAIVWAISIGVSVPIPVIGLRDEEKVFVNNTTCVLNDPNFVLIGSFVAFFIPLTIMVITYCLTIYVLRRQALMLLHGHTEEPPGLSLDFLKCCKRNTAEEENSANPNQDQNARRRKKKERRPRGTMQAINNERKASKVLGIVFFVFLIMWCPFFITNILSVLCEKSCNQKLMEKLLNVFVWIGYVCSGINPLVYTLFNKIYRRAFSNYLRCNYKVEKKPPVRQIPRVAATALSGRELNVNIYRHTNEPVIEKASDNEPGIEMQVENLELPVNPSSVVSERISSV", "design": "host or cells: stably transfected HEK293 cells (Im et al., Mol. Pharmacol. 64, 78-84, 2003)", "details": "Im et al., 2003, cited from earlier work"}, "rats": {"system": "rats", "assay": "Spontaneous locomotor activity (open field horizontal ambulation)", "type": "in vivo, rat", "procedure": "Locomotor activity was monitored and quantified under low light conditions using a modified open field activity system (San Diego Instruments, San Diego, Calif.) according to previous publications with minor modifications (Cunningham et al., 2011, Neuropharmacology 61:513-523). Clear Plexiglass chambers (40×40×40 cm) were surrounded by a 4×4 photobeam matrix positioned 4 cm from the chamber floor. Consecutive photobeam breaks within the 16×16 cm of the activity monitor were recorded as central ambulation. Peripheral ambulation was counted as consecutive beam breaks in the surrounding perimeter. Central and peripheral ambulations were summed to provide a measure of total horizontal ambulation. […] The effects of CYD-1-78-2 and CYD-1-79 alone or in combination with the selective 5-HT2CR agonist WAY163909 were established in a within-subjects design. To control for order effects, drug doses and vehicles were administered in random sequence to individual rats across sessions such that all rats received all treatment combinations and were tested every three days. Rats received vehicle (saline, 1 mL/kg, i.p.), CYD-1-78-2 (0.5, 1, or 3 mg/kg, i.p.) or the combination of CYD-1-78-2 (0.5 mg/kg, i.p.) plus WAY163909 (1 mg/kg, i.p.) immediately prior to placement in activity monitors on each test day; locomotor activity was assessed for 90 min. In a separate cohort of rats, rats received vehicle (saline, 1 mL/kg, i.p.), CYD-1-79 (0.5, 1, or 5 mg/kg, i.p.) or the combination of CYD-1-79 (0.5 mg/kg, i.p.) plus WAY163909 (1 mg/kg, i.p.) immediately prior to placement in activity monitors on each test day; locomotor activity was assessed for 90 min. The combination of CYD-1-78-2 plus WAY163909 or CYD-1-79 plus WAY163909 was administered simultaneously.\nLocomotor activity data are presented as mean total horizontal ambulation (±SEM) over the entire 90-min session or within 5 min time bins across the session. A two-way ANOVA for repeated measures for the factors of treatment and time was conducted. The main effect of treatment on total horizontal ambulation was analyzed with a repeated measures, one-way analysis of variance using the GLM procedure (SAS for Windows). Subsequent a priori comparisons between means for total horizontal ambulation were made using the Dunnett's procedure, with vehicle (saline) as the comparator."}},
  "data": [
    {"molecule": "CCCCCCCCCCC[C@@H]1CCN[C@H](C(=O)N[C@@H]([C@H]2O[C@H](SC)[C@H](O)[C@@H](O)[C@H]2O)[C@H](C)Cl)C1.Cl", "note": "[CYD-1-78-2]", "values": [
      {"measurement": "intrinsic activation of GTPγS binding and IP3 release/[3H]IP accumulation in the absence of 5-HT", "setting": "5-HT2CR; HEK293 cell line (~45 pmol/mg protein)", "result": "detected intrinsic activation"},
      {"measurement": "concentrations giving positive allosteric modulation in the presence of 5-HT", "setting": "5-HT2CR", "result": "less than 10 μM"},
      {"measurement": "modulation at higher concentrations in the presence of 5-HT", "setting": "5-HT2CR; concentrations above 10 μM", "result": "negative allosteric modulation"},
      {"measurement": "effect on spontaneous locomotor activity", "setting": "rats; 0.5 mg/kg alone", "result": "ineffective"},
      {"measurement": "total horizontal ambulation versus saline, combination with WAY163909", "setting": "rats; 0.5 mg/kg i.p. plus WAY163909 1 mg/kg i.p., 90-min session, p<0.05", "result": "significantly reduces"},
      {"measurement": "horizontal ambulation versus saline in 5-min intervals, combination with WAY163909", "setting": "rats; 0.5 mg/kg i.p. plus WAY163909 1 mg/kg i.p., CYD-1-78-2: interval 1 and 2, CYD-1-79: interval 2, p<0.05", "result": "significantly reduces"},
      {"measurement": "horizontal ambulation versus saline in 5-min intervals", "setting": "rats; 1 mg/kg i.p., at interval 4, 5 and 6, p<0.05", "result": "significantly reduces"},
      {"measurement": "total horizontal ambulation summed across the 90-min test session versus saline", "setting": "rats; 1 mg/kg i.p., p<0.05", "result": "significantly reduces"},
      {"measurement": "horizontal ambulation versus saline in 5-min intervals", "setting": "rats; 3 mg/kg i.p., at interval 1, 2, 3 and 11, p<0.05", "result": "significantly reduces"},
      {"measurement": "total horizontal ambulation summed across the 90-min test session versus saline", "setting": "rats; 3 mg/kg i.p., p<0.05", "result": "significantly reduces"},
      {"measurement": "total ambulations", "setting": "rats; 1 and 3 mg/kg, i.p., unhabituated animals, 90 minutes", "result": "dose-dependently decreases"},
      {"measurement": "selective 5-HT2CR agonist-mediated suppression of spontaneous locomotor activity", "setting": "rats; with WAY163909", "result": "augment"}
    ]}
  ]
}
